{"source": "ChEMBL document CHEMBL1201862", "about": "“PubChem BioAssay data set” (2004)", "key": {"fMet-Leu-Phe receptor": {"biological_target": "fMet-Leu-Phe receptor (Homo sapiens, UniProt P21462)", "sequence (P21462 whole entry)": "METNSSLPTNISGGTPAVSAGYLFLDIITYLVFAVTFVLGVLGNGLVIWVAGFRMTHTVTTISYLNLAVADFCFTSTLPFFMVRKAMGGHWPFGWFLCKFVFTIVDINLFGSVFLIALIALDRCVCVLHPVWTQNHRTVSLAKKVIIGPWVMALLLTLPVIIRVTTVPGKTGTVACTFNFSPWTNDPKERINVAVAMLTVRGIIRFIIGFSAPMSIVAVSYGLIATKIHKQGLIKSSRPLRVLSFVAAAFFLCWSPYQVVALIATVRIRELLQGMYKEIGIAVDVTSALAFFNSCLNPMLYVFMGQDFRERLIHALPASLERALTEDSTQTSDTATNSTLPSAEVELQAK", "experiment": "formyl peptide receptor binders – dose response (AID 519)", "type": "functional"}, "[1]": {"experiment": "DRD fibroblast viability loss – cell-based, non-viral oncogenic, luminescence, dose response (AID 1934)", "type": "functional", "settings": "Homo sapiens"}, "BJ [2]": {"test_system": "BJ", "experiment": "cells", "type": "functional, cell-based", "settings": "Homo sapiens"}, "BJ [3]": {"test_system": "BJ", "experiment": "growth inhibition of engineered Ras-driven BJ cells – cell-based, alamar blue fluorescence, cherrypicked samples, dose response (AID 2631)", "type": "functional", "settings": "Homo sapiens"}, "BJ [4]": {"test_system": "BJ", "experiment": "BJ-TERT-LT-ST fibroblast viability loss – cell-based, RAS-independent, luminescence, dose response (AID 1935);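 also: BJ fibroblasts immortalized with TERT plus LT and ST oncogenes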", "type": "functional", "settings": "Homo sapiens"}, "BJ [5]": {"test_system": "BJ", "experiment": "BJ-TERT fibroblast viability loss – cell-based, RAS-independent, luminescence, dose response (AID 1933)", "type": "functional", "settings": "Homo sapiens"}, "[6]": {"experiment": "HGIII-sPLA2 enzyme inhibition potency – biochemical, QFRET, IC50, dose response (AID 743457);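 also: green fluorescence rise as the enzyme cleaves BODIPY PC-A2 in liposomes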"}, "[7]": {"biological_target": "T1, Low molecular weight phosphotyrosine protein phosphatase (Homo sapiens, UniProt P24666)", "T1 sequence (P24666 whole entry)": "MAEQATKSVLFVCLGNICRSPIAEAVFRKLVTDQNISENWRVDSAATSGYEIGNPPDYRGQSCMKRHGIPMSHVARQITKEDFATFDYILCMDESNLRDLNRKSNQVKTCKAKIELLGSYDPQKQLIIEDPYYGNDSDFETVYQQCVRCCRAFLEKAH", "type": "functional", "settings": "read-out: IC50_Mean"}, "[8]": {"biological_target": "T1, Low molecular weight phosphotyrosine protein phosphatase", "type": "functional", "settings": "read-out: IC50_Mean", "remark": "listed apart in the source"}, "[9]": {"experiment": "blockers of HIV-1 envelope-mediated cell-cell fusion – cherry-pick, dose response (AID 652057)", "type": "functional, cell-based"}, "[10]": {"experiment": "viability loss in CEM21 cells – cell-based, CellTiter-Glo luminescence, cherry-picked, cytotoxicity control for viral fusion inhibitor project, dose response (AID 652042);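 also: potency for signal decrease meaning cytotoxicity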", "type": "functional"}, "[11]": {"experiment": "HIV-1 AD8 envelope cell-cell fusion blockers – cherry-pick, dose response (AID 652062);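 also: potency is for inhibitors of fusion seen as a drop in luminescence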", "type": "functional, cell-based"}, "[12]": {"experiment": "off-target signal loss in HeLa-CEM21 co-culture – HeLa F-luc CTL cells, cherry-picked, counter-screen for HIV-1 Env fusion inhibitor project, dose response (AID 652040);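 also: potency for signal decrease marking cytotoxic or nonspecific inhibition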", "type": "functional, cell-based"}, "[13]": {"experiment": "blockers of HIV-1 ZM109 envelope-driven cell-cell fusion – HeLa effector, CEM target cells, luciferase, cherry-pick, dose response (AID 652058)", "type": "functional, cell-based"}, "[14]": {"biological_target": "T2, Oxysterols receptor LXR-beta (Homo sapiens, UniProt P55055)", "T2 sequence (P55055 whole entry)": "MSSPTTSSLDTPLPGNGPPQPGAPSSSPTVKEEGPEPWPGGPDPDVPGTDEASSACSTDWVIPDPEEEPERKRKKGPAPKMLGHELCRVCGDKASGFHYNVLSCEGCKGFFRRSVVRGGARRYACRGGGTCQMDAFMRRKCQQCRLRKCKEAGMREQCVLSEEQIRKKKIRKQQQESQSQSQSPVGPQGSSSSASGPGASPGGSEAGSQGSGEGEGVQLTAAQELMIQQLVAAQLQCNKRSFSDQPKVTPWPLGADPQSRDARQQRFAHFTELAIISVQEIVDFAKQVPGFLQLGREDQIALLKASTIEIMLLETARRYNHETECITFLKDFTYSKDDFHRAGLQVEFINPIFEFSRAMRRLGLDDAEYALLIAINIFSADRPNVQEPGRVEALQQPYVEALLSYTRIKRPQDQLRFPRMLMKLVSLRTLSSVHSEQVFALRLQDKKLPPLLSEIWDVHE", "type": "functional, cell-based"}, "cells [15]": {"experiment": "cells", "type": "functional, cell-based"}, "cells [16]": {"experiment": "cells", "type": "functional, cell-based", "remark": "listed apart in the source"}, "[17]": {"biological_target": "T3, Probable nicotinate-nucleotide adenylyltransferase (Staphylococcus aureus (strain N315), UniProt P65502)", "T3 sequence (P65502 whole entry)": "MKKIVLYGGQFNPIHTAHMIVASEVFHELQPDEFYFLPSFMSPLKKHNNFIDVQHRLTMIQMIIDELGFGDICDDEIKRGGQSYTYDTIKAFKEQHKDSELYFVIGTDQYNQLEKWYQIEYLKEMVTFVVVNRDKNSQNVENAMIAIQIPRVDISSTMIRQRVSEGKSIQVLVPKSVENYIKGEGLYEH", "type": "functional, Staphylococcus aureus subsp. aureus N315"}, "Fatty acid synthase [18]": {"biological_target": "T4, Fatty acid synthase (Homo sapiens, UniProt P49327)", "T4 sequence (P49327 whole entry)": "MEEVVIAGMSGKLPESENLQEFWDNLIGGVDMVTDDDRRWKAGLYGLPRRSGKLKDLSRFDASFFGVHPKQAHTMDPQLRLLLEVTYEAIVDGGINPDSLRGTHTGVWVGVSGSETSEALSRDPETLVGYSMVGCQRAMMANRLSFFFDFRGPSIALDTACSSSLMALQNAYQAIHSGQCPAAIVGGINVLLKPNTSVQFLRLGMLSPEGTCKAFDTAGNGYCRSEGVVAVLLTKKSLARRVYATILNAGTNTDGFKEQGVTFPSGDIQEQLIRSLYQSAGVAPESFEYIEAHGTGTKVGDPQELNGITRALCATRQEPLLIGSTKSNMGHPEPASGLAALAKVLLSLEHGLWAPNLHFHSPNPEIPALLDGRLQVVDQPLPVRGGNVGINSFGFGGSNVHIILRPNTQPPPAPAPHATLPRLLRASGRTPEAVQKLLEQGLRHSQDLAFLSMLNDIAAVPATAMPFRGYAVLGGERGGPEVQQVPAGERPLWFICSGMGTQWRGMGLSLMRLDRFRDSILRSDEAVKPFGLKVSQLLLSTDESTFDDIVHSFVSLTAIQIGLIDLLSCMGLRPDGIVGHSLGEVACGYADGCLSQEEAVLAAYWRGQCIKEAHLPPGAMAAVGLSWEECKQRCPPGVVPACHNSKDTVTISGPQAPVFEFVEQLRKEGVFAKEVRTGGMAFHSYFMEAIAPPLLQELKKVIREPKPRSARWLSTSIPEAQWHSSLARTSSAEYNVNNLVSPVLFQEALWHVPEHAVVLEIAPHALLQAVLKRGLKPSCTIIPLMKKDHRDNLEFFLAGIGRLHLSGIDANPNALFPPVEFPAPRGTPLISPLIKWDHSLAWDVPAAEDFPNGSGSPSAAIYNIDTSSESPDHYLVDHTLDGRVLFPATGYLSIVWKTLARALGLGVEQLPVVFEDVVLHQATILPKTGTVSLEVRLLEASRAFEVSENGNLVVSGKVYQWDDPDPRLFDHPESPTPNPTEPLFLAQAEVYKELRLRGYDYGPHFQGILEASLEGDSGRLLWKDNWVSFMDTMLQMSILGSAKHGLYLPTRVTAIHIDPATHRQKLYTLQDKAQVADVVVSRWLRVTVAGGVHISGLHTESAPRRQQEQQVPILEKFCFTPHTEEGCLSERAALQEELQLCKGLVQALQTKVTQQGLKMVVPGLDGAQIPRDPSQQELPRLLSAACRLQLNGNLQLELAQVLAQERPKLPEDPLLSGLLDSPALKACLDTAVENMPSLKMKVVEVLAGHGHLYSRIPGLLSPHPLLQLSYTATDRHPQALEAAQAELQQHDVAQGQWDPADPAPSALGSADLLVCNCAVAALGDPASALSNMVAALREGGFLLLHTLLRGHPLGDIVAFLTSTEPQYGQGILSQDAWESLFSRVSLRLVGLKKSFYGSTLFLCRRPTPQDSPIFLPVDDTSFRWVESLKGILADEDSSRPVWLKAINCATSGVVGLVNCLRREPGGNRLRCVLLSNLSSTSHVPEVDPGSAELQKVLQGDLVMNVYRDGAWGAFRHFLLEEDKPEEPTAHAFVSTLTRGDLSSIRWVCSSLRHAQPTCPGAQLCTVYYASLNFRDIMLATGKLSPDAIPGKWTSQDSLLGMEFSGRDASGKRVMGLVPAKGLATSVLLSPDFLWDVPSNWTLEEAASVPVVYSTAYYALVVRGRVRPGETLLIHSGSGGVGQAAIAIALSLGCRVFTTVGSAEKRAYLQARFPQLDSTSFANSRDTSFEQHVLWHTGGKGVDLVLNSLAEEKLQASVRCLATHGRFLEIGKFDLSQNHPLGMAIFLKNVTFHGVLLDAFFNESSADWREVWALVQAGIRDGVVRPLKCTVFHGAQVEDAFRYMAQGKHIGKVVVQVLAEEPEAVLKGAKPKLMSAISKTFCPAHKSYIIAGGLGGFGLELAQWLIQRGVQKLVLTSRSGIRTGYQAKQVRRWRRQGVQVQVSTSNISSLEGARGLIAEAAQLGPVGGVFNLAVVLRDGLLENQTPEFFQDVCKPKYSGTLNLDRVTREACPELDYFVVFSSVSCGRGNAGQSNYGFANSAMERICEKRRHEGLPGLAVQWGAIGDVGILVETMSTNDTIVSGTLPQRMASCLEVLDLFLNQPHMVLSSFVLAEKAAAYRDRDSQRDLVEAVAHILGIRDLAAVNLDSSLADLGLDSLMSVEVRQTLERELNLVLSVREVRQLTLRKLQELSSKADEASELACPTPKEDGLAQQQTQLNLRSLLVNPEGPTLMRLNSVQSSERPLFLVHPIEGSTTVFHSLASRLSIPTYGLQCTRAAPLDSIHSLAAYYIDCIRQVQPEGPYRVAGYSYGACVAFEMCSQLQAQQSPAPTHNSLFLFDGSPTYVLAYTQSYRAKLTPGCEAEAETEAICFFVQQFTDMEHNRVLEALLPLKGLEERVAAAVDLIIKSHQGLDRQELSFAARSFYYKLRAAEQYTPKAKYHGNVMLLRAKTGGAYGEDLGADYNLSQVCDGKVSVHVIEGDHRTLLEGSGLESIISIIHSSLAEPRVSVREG", "experiment": "inhibition of human FAS-TE enzyme activity – biochemical, kinetic fluorescence intensity, dose response (AID 624326);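 also: rate of fluorescence rise from hydrolysis of a fluorogenic O-methyl fluorescein ester substrate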", "type": "functional"}, "[19]": {"biological_target": "T3, Probable nicotinate-nucleotide adenylyltransferase", "type": "functional, Staphylococcus aureus subsp. aureus N315", "settings": "read-out: IC50_Mean"}, "Fatty acid synthase [20]": {"biological_target": "T4, Fatty acid synthase", "experiment": "inhibition of human FAS-TE enzyme activity – biochemical, endpoint fluorescence intensity, uHTS hits, dose response (AID 624327);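 also: fluorescence from hydrolysis of an O-methyl fluorescein acyl ester substrate by the enzyme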", "type": "functional"}, "[21]": {"experiment": "viability of uninfected HEp-2 cells – cell-based, HTS, cytotoxicity control for RSV inhibitor project, dose response (AID 2410)", "type": "functional", "settings": "human respiratory syncytial virus"}}, "note": "The source made the active and inactive calls.", "data": [{"smiles": "Cc1ccc(Nc2nc(C3CC3)cs2)cc1", "values": [{"measurement": "Ki", "setting": "fMet-Leu-Phe receptor", "result": "43.1 µM (inactive)"}]}, {"smiles": "CN1C/C(=C/c2ccncc2)C(=O)/C(=C/c2ccncc2)C1", "values": [{"measurement": "EC50", "setting": "[1]", "result": "7.52 µM (active)"}, {"measurement": "EC50", "setting": "BJ [2]", "result": "3.65 µM (inconclusive)"}, {"measurement": "EC50", "setting": "BJ [3]", "result": "0.455 µM (active)"}, {"measurement": "EC50", "setting": "BJ [4]", "result": "5.85 µM (inconclusive)"}, {"measurement": "EC50", "setting": "BJ [5]", "result": "3.82 µM (active)"}]}, {"smiles": "Cc1c(C)c2cc(Cl)c(O)c(CN3CCCCC3)c2oc1=O", "values": [{"measurement": "Ki", "setting": "fMet-Leu-Phe receptor", "result": "> 66.7 µM (inactive)"}]}, {"smiles": "O=C(NN=C(S)NCc1ccccc1)c1ccccc1OC(F)F", "values": [{"measurement": "IC50", "setting": "[6]", "result": "> 122 µM (inactive)"}]}, {"smiles": "Cc1c(C(=O)OCC(=O)N2CC(=O)Nc3ccccc32)oc2ccc(Br)cc12", "values": [{"measurement": "EC50", "setting": "[1]", "result": "15.6 µM (active)"}, {"measurement": "EC50", "setting": "BJ [2]", "result": "35.9 µM (active)"}, {"measurement": "EC50", "setting": "BJ [3]", "result": "> 133 µM (inactive)"}, {"measurement": "EC50", "setting": "BJ [4]", "result": "> 150 µM (inconclusive)"}, {"measurement": "EC50", "setting": "BJ [5]", "result": "10.1 µM (active)"}]}, {"smiles": "O=C1NC(=O)N(CCc2ccc(F)cc2)C(=O)/C1=C\\NCc1ccc2c(c1)OCO2", "values": [{"measurement": "IC50", "setting": "[7]", "result": "3.2 µM (active)"}, {"measurement": "IC50", "setting": "[8]", "result": "> 80 µM (inactive)"}]}, {"smiles": "CCOC(=O)Cn1nnnc1CN(CCc1ccccc1)Cc1cc2cc(CC)ccc2nc1O", "values": [{"measurement": "AC50", "setting": "[9]", "result": "2.97 µM (active)"}, {"measurement": "AC50", "setting": "[10]", "result": "54.2 µM (active)"}, {"measurement": "AC50", "setting": "[11]", "result": "29.3 µM (active)"}, {"measurement": "AC50", "setting": "[12]", "result": "6.05 µM (active)"}, {"measurement": "AC50", "setting": "[13]", "result": "1.17 µM (active)"}]}, {"smiles": "O=C(NCC1CCCO1)c1cc(-c2ccccc2F)no1", "note": "(stereo not drawn)", "values": [{"measurement": "EC50", "setting": "[14]", "result": "> 67.5 µM (inactive)"}, {"measurement": "EC50", "setting": "cells [15]", "result": "43.8 µM (active)"}, {"measurement": "EC50", "setting": "cells [16]", "result": "190 µM (active)"}]}, {"smiles": "O=[N+]([O-])c1ccc(Cl)c(S(=O)(=O)Nc2cccc(-c3ccc(N4CCCC4)nn3)c2)c1", "values": [{"measurement": "IC50", "setting": "[17]", "result": "6.57 µM (active)"}, {"measurement": "IC50", "setting": "Fatty acid synthase [18]", "result": "7.65 µM (active)"}, {"measurement": "IC50", "setting": "[19]", "result": "23.5 µM (active)"}, {"measurement": "IC50", "setting": "Fatty acid synthase [20]", "result": "8.75 µM (active)"}, {"measurement": "CC50", "setting": "[21]", "result": "14.7 µM (active)"}]}]}
